Laboratory results as given in patent US20220332700A1, “NOVEL APOPTOSIS SIGNAL-REGULATING KINASE 1 INHIBITORS” (MANKIND PHARMA LTD, priority 2019, published 2022).

What was measured:
Human ASK1 = target: T1, Human ASK1 (Homo sapiens, UniProt Q99683); assay: ASK1 Cell Based Assay (phospho p38 read out in hASK1 transfected HEK293T-AP1 cells); details: HEK293T-AP1 cells, 1 mM hydrogen peroxide, phospho p38; read-out: Cell Based Assay IC50
T1 construct: expressed in transfected cells; host or cells: HEK293T-AP1
T1 sequence (Q99683 1-1374): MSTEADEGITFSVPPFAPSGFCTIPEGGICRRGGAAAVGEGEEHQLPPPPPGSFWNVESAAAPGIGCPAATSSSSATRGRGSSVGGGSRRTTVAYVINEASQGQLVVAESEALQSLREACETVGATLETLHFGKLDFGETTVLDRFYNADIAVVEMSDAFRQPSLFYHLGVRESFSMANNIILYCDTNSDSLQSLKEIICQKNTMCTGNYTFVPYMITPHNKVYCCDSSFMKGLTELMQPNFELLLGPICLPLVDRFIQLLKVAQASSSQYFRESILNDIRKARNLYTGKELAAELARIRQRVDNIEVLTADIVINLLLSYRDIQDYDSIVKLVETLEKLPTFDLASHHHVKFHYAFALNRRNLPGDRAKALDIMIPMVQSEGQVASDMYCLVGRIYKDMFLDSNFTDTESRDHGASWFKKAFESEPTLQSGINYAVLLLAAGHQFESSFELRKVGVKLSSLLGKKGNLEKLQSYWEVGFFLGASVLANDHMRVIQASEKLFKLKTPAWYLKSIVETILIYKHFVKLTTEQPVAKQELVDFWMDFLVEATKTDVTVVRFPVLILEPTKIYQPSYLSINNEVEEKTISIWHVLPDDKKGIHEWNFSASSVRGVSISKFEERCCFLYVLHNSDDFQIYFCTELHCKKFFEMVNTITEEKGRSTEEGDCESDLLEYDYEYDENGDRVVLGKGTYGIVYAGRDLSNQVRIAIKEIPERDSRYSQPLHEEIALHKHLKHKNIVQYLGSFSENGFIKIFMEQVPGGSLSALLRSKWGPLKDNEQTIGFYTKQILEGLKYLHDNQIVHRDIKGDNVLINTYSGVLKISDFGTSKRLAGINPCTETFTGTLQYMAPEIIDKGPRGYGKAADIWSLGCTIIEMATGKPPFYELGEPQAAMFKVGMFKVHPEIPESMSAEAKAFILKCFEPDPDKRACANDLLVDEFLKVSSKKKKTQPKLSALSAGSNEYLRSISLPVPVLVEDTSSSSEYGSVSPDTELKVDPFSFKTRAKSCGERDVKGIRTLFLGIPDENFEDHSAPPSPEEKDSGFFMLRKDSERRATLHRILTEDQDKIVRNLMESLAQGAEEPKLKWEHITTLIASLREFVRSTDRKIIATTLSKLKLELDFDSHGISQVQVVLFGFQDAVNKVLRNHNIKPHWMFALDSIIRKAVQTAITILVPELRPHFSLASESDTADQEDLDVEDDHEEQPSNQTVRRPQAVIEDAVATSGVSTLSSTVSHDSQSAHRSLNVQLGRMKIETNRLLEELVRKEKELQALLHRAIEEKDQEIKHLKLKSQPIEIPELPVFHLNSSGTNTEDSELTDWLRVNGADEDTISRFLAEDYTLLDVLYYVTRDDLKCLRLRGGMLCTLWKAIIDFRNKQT
Protocol: HEK293T-AP1 cells were seeded at a density of 20,000 cells per well in a poly-d-lysine coated 96 well microplate. Next day, cells were transfected with hASK1-pcDNA3.1 vector using lipofectamine 3000. After 24 hours of transfection, cells were treated with compounds for 24 hours in assay medium. DMSO was used as a vehicle control with a final DMSO concentration of 0.2%. On 4th day, medium was discarded and cells were activated with 1 mM hydrogen peroxide for 1 hour in the presence of compounds. Cells were lysed for 1 hour with 1× lysis buffer on a shaker at 100 rpm. Sixteen microliters of lysate was collected into a 384 well small volume plate. Phospho p38 levels in the lysate was detected by using CisbioPhospho-p38 MAPK (Thr180/Tyr182) #64P38PEG.Four microliters of phospho p38 antibodies labelled with europium cryptate and d2 acceptor, were added to the lysate and incubated overnight. TR-FRET was measured at an excitation of 335 nm and emission was measured at 615 nm and 665 nm in BMG FLUOstar multimode reader.
Compounds were assessed for ASK1 inhibition based on phospho p38 read out. […] Background control values were susbtracted from vehicle control as well as from compound treated wells.

recombinant ASK1 = target: T2, recombinant ASK1 (Homo sapiens, UniProt Q99683); assay: ASK1 Biochemical Assay (HTRF KinEASE-STK S3); details: ATP 100 μM; read-out: Biochemical Assay IC50
T2 construct: purchased Carna Biosciences
Protocol: ASK1 biochemical assay was standardized using recombinant ASK1 (Carna Biosciences), substrate and detection reagents from Cisbio HRTF KinEASE-STK S3 kit. Enzyme concentration, ATP, biotinylated STK substrate and STK antibodies were titrated for enzyme assay. Assay was carried out in ASK1 kinase buffer, 10 mM MOPS pH-7, 10 mM Mg-acetate, 1 mM DTT, 0.025% NP40, 1.5% glycerol and 0.05% BSA. DMSO was used as vehicle control with a final concentration of 1%. A 5 ng of ASK1 enzyme was incubated with compound for 1 hour at 23° C. on a shaker at 100rpm. ATP and biotin substrate was added at a final concentration of 100 μM and 1 μM and incubated for 3 hours at 23° C. on a shaker at 100rpm. […] Delta F ratios were calculated from data obtained at excitation (337 nm) and emission wavelengths (665 nm and 620-10 nm). Substrate blank values was considered as negative control. Values from negative control was substrated from vehicle control and compound treated wells. Enzyme inhibition by compounds were calculated from vehicle controls, which represent uninterrupted enzyme's activity.

| SMILES | IC50 (Human ASK1) | IC50 (recombinant ASK1) |
| --- | --- | --- |
| CC(C)n1cnnc1-c1cccc(N2CCN(c3cccc(-n4ccnc4)c3)C2=O)n1 [Example 1002, 1-(3-(1H-imidazol-1-yl)phenyl)-3-(6-(4-isopropyl-4H-1,2,4-triazol-3-yl)pyridin-2-yl)imidazolidin-2-one] | > 1000 nM | 70 nM |
| CC(C)n1cnnc1-c1cccc(N2CCN(c3cccc(-c4ccc(S(C)(=O)=O)cc4)c3)C2=O)n1 [Example 1007, 1-(6-(4-isopropyl-4H-1,2,4-triazol-3-yl)pyridin-2-yl)-3-(4′-(methylsulfonyl)-[1,1′-biphenyl]-3-yl)imidazolidin-2-one] | > 1000 nM | 30 nM |
| CC(C)n1cnnc1-c1cccc(N2CCN(c3cccc(-c4ccc(S(C)(=O)=O)nc4)c3)C2=O)n1 [Example 1010, 1-(6-(4-isopropyl-4H-1,2,4-triazol-3-yl)pyridin-2-yl)-3-(3-(6-(methylsulfonyl)pyridin-3-yl)phenyl)imidazolidin-2-one] | > 1000 nM | 25 nM |
| CC(C)n1cnnc1-c1cccc(N2CCN(c3cccc(-c4ccncc4)c3)C2=O)n1 [Example 1011, 1-(6-(4-isopropyl-4H-1,2,4-triazol-3-yl)pyridin-2-yl)-3-(3-(pyridin-4-yl)phenyl)imidazolidin-2-one] | > 10000 nM | < 1000 nM |
| CC(C)n1cnnc1-c1cccc(N2CCN(c3ccc(S(C)(=O)=O)cc3)C2=O)n1 [Example 1013, 1-(6-(4-isopropyl-4H-1,2,4-triazol-3-yl)pyridin-2-yl)-3-(4-(methylsulfonyl)phenyl)imidazolidin-2-one] | < 1000 nM | < 100 nM |
| CC(C)n1cnnc1-c1cccc(N2CCN(c3cccc(-c4cnn(S(C)(=O)=O)c4)c3)C2=O)n1 [Example 1014, 1-(6-(4-isopropyl-4H-1,2,4-triazol-3-yl)pyridin-2-yl)-3-(3-(1-(methylsulfonyl)-1H-pyrazol-4-yl)phenyl)imidazolidin-2-one] | > 10000 nM | > 100 nM |
| CC(C)n1cnnc1-c1cccc(N2CCN(c3ccc(S(C)(=O)=O)nc3)C2=O)n1 [Example 1018, 1-(6-(4-isopropyl-4H-1,2,4-triazol-3-yl)pyridin-2-yl)-3-(6-(methylsulfonyl)pyridin-3-yl)imidazolidin-2-one] | > 1000 nM | < 100 nM |
| COc1ccc(-c2ccc(S(C)(=O)=O)nc2)cc1N1CCN(c2cccc(-c3nncn3C(C)C)n2)C1=O [Example 1019, 1-(6-(4-isopropyl-4H-1,2,4-triazol-3-yl)pyridin-2-yl)-3-(2-methoxy-5-(6-(methylsulfonyl)pyridin-3-yl)phenyl)imidazolidin-2-one] | > 10000 nM | > 100 nM |
| CC(C)n1cnnc1-c1cccc(N2CCN(c3ccc(S(N)(=O)=O)cc3)C2=O)n1 [Example 1020, 4-(3-(6-(4-isopropyl-4H-1,2,4-triazol-3-yl)pyridin-2-yl)-2-oxoimidazolidin-1-yl)benzenesulfonamide] | > 10000 nM | < 100 nM |
| CC(C)n1cnnc1-c1cccc(N2CCN(c3cc(-c4ccc(S(C)(=O)=O)nc4)ccc3F)C2=O)n1 [Example 1021, 1-(2-fluoro-5-(6-(methylsulfonyl)pyridin-3-yl)phenyl)-3-(6-(4-isopropyl-4H-1,2,4-triazol-3-yl)pyridin-2-yl)imidazolidin-2-one] | > 10000 nM | > 1000 nM |
| CC(C)n1cnnc1-c1cccc(N2CCNC2=O)n1 [Example 1022, 1-(6-(4-isopropyl-4H-1,2,4-triazol-3-yl)pyridin-2-yl)imidazolidin-2-one] | > 1000 nM | < 100 nM |
| CC(C)n1cnnc1-c1cccc(N2CCN(c3ccc(S(N)(=O)=O)cc3)C2=O)n1 [Example 1023, 4-(3-(6-(4-isopropyl-4H-1,2,4-triazol-3-yl)pyridin-2-yl)-2-oxoimidazolidin-1-yl)benzenesulfonamide] | > 1000 nM | – |
| CC(C)n1cnnc1-c1cccc(N2CCN(c3ccc(S(=O)(=O)C4CC4)cc3)C2=O)n1 [Example 1025, 1-(4-(cyclopropylsulfonyl)phenyl)-3-(6-(4-isopropyl-4H-1,2,4-triazol-3-yl)pyridin-2-yl)imidazolidin-2-one] | < 1000 nM | < 100 nM |
| Cc1cc(N2CCN(c3cccc(-c4nncn4C(C)C)n3)C2=O)ccc1S(C)(=O)=O [Example 1029, 1-(6-(4-isopropyl-4H-1,2,4-triazol-3-yl)pyridin-2-yl)-3-(3-methyl-4-(methylsulfonyl)phenyl)imidazolidin-2-one] | > 1000 nM | < 100 nM |
| CC(C)n1cnnc1-c1cccc(N2CCN(c3ccc(S(C)(=O)=O)cc3F)C2=O)n1 [Example 1032, 1-(2-fluoro-4-(methylsulfonyl)phenyl)-3-(6-(4-isopropyl-4H-1,2,4-triazol-3-yl)pyridin-2-yl)imidazolidin-2-one] | > 1000 nM | < 100 nM |
| CC(C)n1cnnc1-c1cccc(N2CCN(c3ccncc3)C2=O)n1 [Example 1034, 1-(6-(4-isopropyl-4H-1,2,4-triazol-3-yl)pyridin-2-yl)-3-(pyridin-4-yl)imidazolidin-2-one] | > 1000 nM | < 100 nM |
| CC(C)n1cnnc1-c1cccc(N2CCN(c3ccc(C#N)cc3)C2=O)n1 [Example 1035, 4-(3-(6-(4-isopropyl-4H-1,2,4-triazol-3-yl)pyridin-2-yl)-2-oxoimidazolidin-1-yl)benzonitrile] | > 10000 nM | < 100 nM |
| CC(C)n1cnnc1-c1cccc(N2CCN(c3ccc(-n4ccnc4)cc3)C2=O)n1 [Example 1036, 1-(4-(1H-imidazol-1-yl)phenyl)-3-(6-(4-isopropyl-4H-1,2,4-triazol-3-yl)pyridin-2-yl)imidazolidin-2-one] | < 1000 nM | < 100 nM |
| CC(C)n1cnnc1-c1cccc(N2CCN(c3ccc(C(=O)C4CC4)cc3)C2=O)n1 [Example 1037, 1-(4-(cyclopropanecarbonyl)phenyl)-3-(6-(4-isopropyl-4H-1,2,4-triazol-3-yl)pyridin-2-yl)imidazolidin-2-one] | < 1000 nM | < 100 nM |
| CC(C)n1cnnc1-c1cccc(N2CCN(c3ccc(S(C)(=O)=O)c(F)c3)C2=O)n1 [Example 1038, 1-(3-fluoro-4-(methylsulfonyl)phenyl)-3-(6-(4-isopropyl-4H-1,2,4-triazol-3-yl)pyridin-2-yl)imidazolidin-2-one] | < 1000 nM | < 100 nM |
